Results published in patent US20200129525A1, “Method to improve quality of life in non-primate animals by administration of Dehydroepiandrosterone Sulfate (DHEAS) sufficient to achieve primate-specific levels of circulating DHEAS that are not natural to the target species” (priority 2018, published 2020).
“And” between values parts separate entries of the source, which are not always exact repeats. Identical values can stand only once.

Tested on: dogs
Assay: Study on 60 dogs: owner estimation of playfulness and sociability before and after DHEAS treatment
Assay type: in vivo, dog
Conditions: for playfulness and sociability: dogs
Procedure: Table 1. […] Playfulness was defined as a dog initiating solitary play. Sociability was defined as a dog initiating play with another pet or with its owner. […] Of twenty-six dogs treated the highest doses (25 or 50 mg/kg) eighteen owners reported the changes in their dogs to be dramatic.
Physiological levels of circulating DHEAS in canines are 10 ng/ml (±2 ng/ml) (Frank et al, 2003; Odell & Parker, 1985; Tremblay & Belanger, 1985; Mialot et al, 1988; Mongillo et al, 2014; Rondelli et al, 2015). Our invention employs doses of DHEAS that produce supra-physiologic concentrations of circulating DHEAS at least nine times higher than this, i.e., at least 90 ng/ml, i.e. equivalent to the lower range of primate-specific high levels of circulating DHEAS (FIG. 1). This equates to a minimum treatment dose of 0.009 mg/kg. Our studies reported here were performed with DHEAS administered at ranges from 0.5-50 mg/kg. For all non-primate animals, this invention employs supra-physiologic doses of DHEAS that produce concentrations of circulating DHEAS that are at least ten-fold higher than those found naturally
Thus, in 56 of 60 treated dogs, owners reported observing a very clear improvement in their dog's playfulness and sociability, an observation that in most cases was also remarked upon by visitors to the owner's home. The uniformity of this finding is surprising, because the natural levels of canine DHEAS are quite low, and so this species has never been exposed to such high levels as we report here. Clearly, dogs experience an unmistakable positive response to exogenous DHEAS.
We administered our DHEAS orally, as a liquid, or in capsules. A preferred embodiment of this invention are dosage formulations that mask the bitter flavor of DHEAS from dogs or other pet animals receiving it orally. As an example, Onda et al. (U.S. Pat. No. 4,385,078A) teach methods for providing enteric coatings for solid dosage forms. Tai (U.S. Pat. No. 5,013,557A) teaches taste masking compositions comprising spray dried microcapsules containing sucralfate, and Alkire (U.S. Pat. No. 5,607,697A) and Cherukuri et al (U.S. Pat. No. 5,013,716A) teach the manufacture of taste masking microparticles for oral dosage forms. Patell (U.S. Pat. No. 4,916,161A) teaches the use of taste-masking pharmaceutical agents via wet granulation. In short, many methods are available to produce a formulation that will effectively prevent dogs or other pet animals from experiencing the bitter taste of DHEAS. Very little work has been done using DHEAS as the pharmaceutical ingredient, with most studies utilizing DHEA. For example, US20140235598A1 teaches the manufacture of tablets containing DHEA, but a similar formulation could be rendered with DHEAS.

## Dehydroepiandrosterone sulfate [DHEAS]
60 treated dogs, DHEAS oral (liquid or capsules), 0.5-50 mg/kg, owner estimation
  dogs whose owners reported a clear increase in playfulness and/or sociability during the treatment period: fifty-six of sixty and 56 of 60
Doses of 5 mg/kg and above
  playfulness and sociability: profound increase
Lower dose of 1 mg/kg
  playfulness and sociability: an effect could be observed
Of twenty-six dogs treated with the highest doses (25 or 50 mg/kg)
  owners who reported the changes in their dogs to be dramatic: eighteen
